Assay results from patent US8173689B2 (Novartis AG, priority 2006, dated 2012).
Where two headings read alike, the source gives them in different places.

Tests used:
kinase domain of PDGFRβ = target: T1, kinase domain of PDGFRβ (Homo sapiens, UniProt P09619); test: Inhibition of PDGFRb kinase signaling in an in vitro biochemical assay (alphascreen); conditions: tested at about 1 μM, read-out: PDGFRβ percent inhibition
T1 construct: The kinase domain of PDGFRβ was assayed in 50 mM Hepes; purchased Invitrogen P3082

[1] = tested on: MNFS60 (murine AML cells); test: Cell viability assay in MCSF dependent MNFS60 cells (Cell Titer Glo); format: cell-based; conditions: Mus musculus, tested at about 1 μM, read-out: M-NFS-60 CP percent inhibition
Procedure, shortened: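 MNFS60 cells grown with 10 ng/ml MCSF (final) were exposed for 72 hrs at 37° C., 5% CO2 to 3-fold serial compound dilutions. Viable cells were measured by Cell Titer Glo luminescence, in triplicate, and EC50s were derived by curve fitting.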

[2] = target: T2, cytoplasmic domain of the human CSF-1R (Homo sapiens, UniProt P07333); test: In vitro kinase assay for colony stimulating factor-1 receptor (AlphaScreen); format: biochemical; conditions: tested at about 1 μM, read-out: CSF-1R percent inhibition
T2 construct: Recombinant protein corresponding to the cytoplasmic domain of the human CSF-1R; purchased Invitrogen Corporation, Carlsbad, Calif; PV3249
T2 sequence (P07333 539-972 limits assumed): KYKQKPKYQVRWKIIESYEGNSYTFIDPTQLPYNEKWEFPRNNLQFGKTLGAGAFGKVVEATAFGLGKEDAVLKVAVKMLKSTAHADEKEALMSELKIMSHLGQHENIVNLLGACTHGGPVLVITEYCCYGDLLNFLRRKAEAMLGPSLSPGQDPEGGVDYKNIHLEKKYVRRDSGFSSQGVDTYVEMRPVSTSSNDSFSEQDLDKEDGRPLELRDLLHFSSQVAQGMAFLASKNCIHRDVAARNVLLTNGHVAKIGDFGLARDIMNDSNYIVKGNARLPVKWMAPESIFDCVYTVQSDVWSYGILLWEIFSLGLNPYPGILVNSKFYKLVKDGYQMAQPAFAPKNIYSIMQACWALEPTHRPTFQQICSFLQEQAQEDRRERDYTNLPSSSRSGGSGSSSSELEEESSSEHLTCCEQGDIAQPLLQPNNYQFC
Procedure, shortened: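 4 nM enzyme, 1 μM ATP; buffer 50 mM Hepes pH 7.5, 5 mM MgCl2, 10 mM MnCl2, 1.0 mM DTT, 0.1% BSA, 0.01% Tween 80. Readout: AlphaScreen, PT66 acceptor/streptavidin donor, overnight.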

[3] = target: T3, full-length human CSF-1R receptor (Homo sapiens, UniProt P07333); test: In vitro inhibition of CSF-1R receptor tyrosine phosphorylation in transfected HEK293H cells stimulated with MCSF; format: cell-based; conditions: HEK293-H, tested at about 1 μM, read-out: pCSF1R percent inhibition
T3 construct: transfected with the full-length human CSF-1R receptor cloned in house; expressed in transfected cells; host or cells: HEK293H (Invitrogen Cat. #11631017)
Description: The lysate was then transferred to total CSF-1R antibody coated 96-well plates that had already been blocked with 3% Blocker A from Mesoscale discovery (MSD) for 2 hours and washed afterwards. Lysates were incubated overnight at 4° C. and the plates were then washed 4× with MSD Tris Wash Buffer. […] The plates were read on the Sector 6000 instrument (MSD). Raw data was imported in Abase and EC50s calculated with XL-fit data analysis software.

kinase domain of cKIT = target: T4, kinase domain of cKIT (Homo sapiens, UniProt P10721); test: Inhibition of cKIT kinase signaling in an in vitro biochemical assay (alphascreen); conditions: tested at about 1 μM, read-out: cKit percent inhibition
T4 construct: The kinase domain of cKIT was assayed in 50 mM Hepes; purchased Upstate 14-559
T4 sequence (P10721 589-937 limits assumed): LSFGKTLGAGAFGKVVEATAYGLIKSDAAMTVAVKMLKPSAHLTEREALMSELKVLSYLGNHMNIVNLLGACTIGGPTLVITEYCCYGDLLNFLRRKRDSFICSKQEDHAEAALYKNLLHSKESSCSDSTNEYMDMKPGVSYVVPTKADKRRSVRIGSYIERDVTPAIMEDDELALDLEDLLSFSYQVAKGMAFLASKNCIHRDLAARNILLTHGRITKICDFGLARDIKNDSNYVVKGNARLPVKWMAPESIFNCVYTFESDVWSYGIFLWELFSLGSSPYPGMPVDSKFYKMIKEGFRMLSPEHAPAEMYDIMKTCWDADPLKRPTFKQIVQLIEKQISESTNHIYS

T3 sequence (P07333 20-972): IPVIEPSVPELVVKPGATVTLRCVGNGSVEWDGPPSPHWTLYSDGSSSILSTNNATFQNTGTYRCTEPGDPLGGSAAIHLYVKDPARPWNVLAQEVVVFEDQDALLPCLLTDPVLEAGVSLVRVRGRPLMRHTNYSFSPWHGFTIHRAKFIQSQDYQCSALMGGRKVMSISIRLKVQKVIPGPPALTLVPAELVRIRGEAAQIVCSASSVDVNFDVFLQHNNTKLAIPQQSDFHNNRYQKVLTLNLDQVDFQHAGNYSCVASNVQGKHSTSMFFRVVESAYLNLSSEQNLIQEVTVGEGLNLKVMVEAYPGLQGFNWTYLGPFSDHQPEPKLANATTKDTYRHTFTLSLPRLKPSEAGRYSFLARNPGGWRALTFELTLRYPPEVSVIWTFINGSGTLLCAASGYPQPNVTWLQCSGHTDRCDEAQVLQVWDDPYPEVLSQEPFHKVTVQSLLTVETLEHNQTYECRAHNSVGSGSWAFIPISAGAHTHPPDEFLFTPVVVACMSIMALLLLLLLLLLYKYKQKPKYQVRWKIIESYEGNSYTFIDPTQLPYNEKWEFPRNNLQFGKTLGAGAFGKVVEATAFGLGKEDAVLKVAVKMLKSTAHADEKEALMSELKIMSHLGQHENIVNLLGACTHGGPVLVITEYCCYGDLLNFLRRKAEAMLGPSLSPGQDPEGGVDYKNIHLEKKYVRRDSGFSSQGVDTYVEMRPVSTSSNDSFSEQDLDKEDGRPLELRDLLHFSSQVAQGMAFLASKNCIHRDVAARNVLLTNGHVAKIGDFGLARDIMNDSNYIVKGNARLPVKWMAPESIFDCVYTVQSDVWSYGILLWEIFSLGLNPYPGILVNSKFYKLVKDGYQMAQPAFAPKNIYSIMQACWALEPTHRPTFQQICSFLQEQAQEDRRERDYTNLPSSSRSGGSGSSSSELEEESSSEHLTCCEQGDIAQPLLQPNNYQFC
T1 sequence (P09619 600-962 limits assumed): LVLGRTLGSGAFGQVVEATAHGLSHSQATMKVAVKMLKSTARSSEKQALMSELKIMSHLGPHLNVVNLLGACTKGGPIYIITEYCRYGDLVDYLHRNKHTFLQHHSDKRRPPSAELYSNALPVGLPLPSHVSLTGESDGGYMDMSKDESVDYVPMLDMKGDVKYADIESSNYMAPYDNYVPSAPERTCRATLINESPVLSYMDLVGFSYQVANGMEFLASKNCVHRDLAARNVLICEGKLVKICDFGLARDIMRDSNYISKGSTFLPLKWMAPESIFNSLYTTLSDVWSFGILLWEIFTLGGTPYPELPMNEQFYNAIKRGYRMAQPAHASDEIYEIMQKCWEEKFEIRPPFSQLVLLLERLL

inhibition at 1 µM (kinase domain of PDGFRβ) [%]	inhibition at 1 µM [2] [%]	inhibition at 1 µM ([3]; HEK293H cells) [%]	inhibition at 1 µM (kinase domain of cKIT) [%]	inhibition at 1 µM (kinase domain of PDGFRβ; compounds of Table 3) [%]	inhibition at 1 µM ([2]; compounds of Table 3) [%]	inhibition at 1 µM ([3]; compounds of Table 3) [%]	inhibition at 1 µM (kinase domain of cKIT; compounds of Table 3) [%]	SMILES	inhibition at 1 µM ([1]; MNFS60 cells) [%]	inhibition at 1 µM ([1]; compounds of Table 3) [%]	inhibition at 1 µM ([1]; MCSF dependent MNFS60 cells) [%]
8	99	70	22					CNC(=O)c1cc(Oc2ccc3nc(NCc4ccccc4-n4cccn4)oc3c2)ccn1 [Compound 105, 4-[2-(2-Pyrazol-1-yl-benzyl-amino)-benzooxazol-6-yloxy]-pyridine-2-carboxylic acid methylamide]	49		
				83	100	98	83	O[C@@H]1CCCC[C@H]1Nc1nc2ccc(Oc3ccnc(-c4ccc(N5CCOCC5)nc4)c3)cc2s1 [Cmpd 165, (1R,2R)-2-(6-(6'-morpholino-2,3'-bipyridin-4-yloxy)benzo[d]thiazol-2-ylamino)cyclohexanol]		100	
				11	98	74	21	CCc1nc(-c2cc(Oc3ccc4nc(N[C@@H](C)C5CCCCC5)sc4c3)ccn2)[nH]c1C [Example 270, (S)-N-(1-cyclohexylethyl)-6-(2-(4-ethyl-5-methyl-1H-imidazol-2-yl)pyridin-4-yloxy)benzo[d]thiazol-2-amine]		50	
10	100	79	41					CNC(=O)c1cc(Oc2ccc3nc(N[C@H]4CCCN(S(C)(=O)=O)C4)sc3c2)ccn1 [Example 331, (S)-N-methyl-4-(2-(1-(methylsulfonyl)piperidin-3-ylamino)benzo[d]thiazol-6-yloxy)picolinamide]			68
				35	100	85	25	CC(C)[C@@H](CO)Nc1nc2ccc(Oc3ccnc4ccccc34)cc2s1 [Example 244, (S)-3-methyl-2-(6-(quinolin-4-yloxy)benzo[d]thiazol-2-ylamino)butan-1-ol]		67	
				14	100	65	6	O[C@@H]1CCCC[C@H]1Nc1nc2ccc(Oc3ccnc4cc(OC(F)(F)F)ccc34)cc2s1 [Example 230, (1R,2R)-2-(6-(7-(trifluoromethoxy)quinolin-4-yloxy)benzo[d]thiazol-2-ylamino)cyclohexanol]		58	
0	100	80	14					CNC(=O)c1cc(Oc2ccc3nc(N[C@@H](C)c4ccccc4OC)sc3c2)ccn1 [Example 328, (S)-4-(2-(1-(2-methoxyphenyl)ethylamino)benzo[d]thiazol-6-yloxy)-N-methylpicolinamide]			63
				22	100	65	11	O[C@@H]1CCCC[C@H]1Nc1nc2ccc(Oc3ccnc(-c4ccncc4)c3)cc2s1 [Example 280, (1R,2R)-2-(6-(2,4'-bipyridin-4-yloxy)benzo[d]thiazol-2-ylamino)cyclohexanol]		100	
0	100	94	21					CNC(=O)c1cc(Oc2ccc3nc(NCc4cc(F)ccc4F)sc3c2)ccn1 [Compound 139, 4-[2-(2,5-Difluoro-benzylamino)-benzothiazol-6-yloxy]-pyridine-2-carboxylic acid methylamide]	48		
				49	100	99	9	Cc1c[nH]c(-c2cc(Oc3ccc4nc(N[C@@H]5CCCC[C@H]5O)sc4c3)ccn2)n1 [Example 231, (1R,2R)-2-(6-(2-(4-methyl-1H-imidazol-2-yl)pyridin-4-yloxy)benzo[d]thiazol-2-ylamino)cyclohexanol]		100	
37	100	37	55					CNC(=O)c1cc(Oc2ccc3nc(N[C@H](CO)C4CCCCC4)oc3c2)ccn1 [Compound 66, 4-[2-((S)-1-Cyclohexyl-02-hydroxy-ethylamino)-benzo-oxazol-6-yloxy]-pyridine-2-carboxylic acid methylamide]	18		
3	99	86	5					CNC(=O)c1cc(Oc2ccc3nc(NCc4cc(OC)ccc4OC)sc3c2)ccn1 [Compound 146, 4-[2-(2,5-Dimethoxy-benzyl-amino)-benzothiazol-6-yloxy]-pyridine-2-carboxylic acid methylamide]	56		
0	100	94	31					CNC(=O)c1cc(Oc2ccc3nc(NCc4cccc(F)c4F)oc3c2)ccn1 [Compound 79, 4-[2-(2,3-Difluoro-benzylamino)-benzooxazol-6-yloxy]-pyridine-2-carboxylic acid methylamide]	57		
				20	100	88	29	CNC(=O)c1cc(Oc2ccc3nc(N[C@@H]4C[C@H]5CC[C@@H]4C5)sc3c2)ccn1 [Compound 128]		82	
				26	100	96	16	CCCc1nc(-c2cc(Oc3ccc4nc(N[C@@H]5CCCC[C@H]5O)sc4c3)ccn2)[nH]c1C [Example 267, (1R,2R)-2-(6-(2-(5-methyl-4-propyl-1H-imidazol-2-yl)pyridin-4-yloxy)benzo[d]thiazol-2-ylamino)cyclohexanol]		100	
				0	100	82	22	CNC(=O)c1cc(Oc2ccc3nc(NC4CCCC(O)C4)sc3c2)ccn1 (centres unmarked) [Example 293, 4-(2-(3-hydroxycyclohexylamino)benzo[d]thiazol-6-yloxy)-N-methylpicolinamide]		67	
12	99	98	8					CNC(=O)c1cc(Oc2ccc3nc(NCCc4ccncc4)sc3c2)ccn1 [Example 316, N-methyl-4-(2-(2-(pyridin-4-yl)ethylamino)benzo[d]thiazol-6-yloxy)picolinamide]			41
0	100	88	96					CNC(=O)c1cc(Oc2ccc3nc(NCc4ccc(OC)c(OC)c4Cl)oc3c2)ccn1 [Compound 117, 4-[2-(2-Chloro-3,4-dimethoxy-benzylamino)-benzooxazol-6-yloxy]-pyridine-2-carboxylic acid methylamide]	61		
				7	100	59	30	COc1ccc(-c2cc(Oc3ccc4nc(N[C@@H](C)C5CCCCC5)sc4c3)ccn2)cn1 [Example 279, (S)-N-(1-cyclohexylethyl)-6-(6'-methoxy-2,3'-bipyridin-4-yloxy)benzo[d]thiazol-2-amine]		60	
